Measured values taken from US20100093820A1, “CRYSTALLINE PYRAZOLES” (PHARMACIA & UPJOHN COMPANY LLC, priority 2004, published 2010).

What was measured:
[1] = Suspension crystallization: relative thermodynamic stability of Forms I and II; assay type: physicochemical; conditions: mixture of Forms I and II suspended in toluene, stirred at least three days, solid identified by PXRD
Description: Methods. Suspension crystallization. The relative stability relationship between Forms I and II at a specific temperature was bracketed by suspending a mixture of the two polymorphs in toluene in a closed glass vial that was equilibrated at the temperature of interest. Excess solid of one polymorph was first added to saturate toluene in a glass vial at the chosen temperature. The other polymorph was added at least half an hour later. The suspension was stirred continuously for at least three days. A portion of the suspension was withdrawn and immediately filtered. The filtered solid was analyzed using PXRD to identify the equilibrium solid at that temperature. […] By repeating the experiment at different temperatures, the Tt was bracketed.
Suspension Crystallization. […] The Tt must be approximately 70 to about 73° C.

[2] = Relative stability of crystal forms at ambient temperature and pressure; assay type: physicochemical
Excerpt: has been described in U.S. Pat. Nos. 5,466,823 and 5,521,207. The description describes a synthesis of the compound, but is silent with respect to the crystalline form which is obtained. […] The forms can be distinguished by their PXRD (powder X-ray diffraction) patterns.

Row | SMILES | temperature at which the form is thermodynamically more stable (equilibrium solid phase) [1] [°C] | stability of crystal form relative to the other form [2]
1 | NS(=O)(=O)c1ccc(-n2nc(C(F)(F)F)cc2-c2ccc(F)cc2)cc1 [Form I, 4-[5-(4-fluorophenyl)-3-(trifluoromethyl)-1H-pyrazol-1-yl]-benzenesulfonamide] | ≤ 71.0 | –
2 | NS(=O)(=O)c1ccc(-n2nc(C(F)(F)F)cc2-c2ccc(F)cc2)cc1 [Form II, 4-[5-(4-fluorophenyl)-3-(trifluoromethyl)-1H-pyrazol-1-yl]-benzenesulfonamide] | ≥ 71.5 | unstable with respect to another form, Form I
